The subject of assay [1] is KDM5. Kind of assay: KDM5 demethylase inhibition, whole-cell nuclear extraction. The conditions noted are these: whole-cell nuclear extraction. Format: biochemical. From the text:
HMT and HDM are two major classes of enzymes, contributing to the regulation of histone methylation. Lysine-specific demethylase 1 (LSD1) and histone lysine demethylase 5 (KDM5, also known as JARID1) majorly catalyze demethylation of H3K4. A few KDM5 chemical inhibitors have been reported to inhibit demethylation of H3K4, leading to an increase of global methylated H3K4 in various cell types. The inventors tested the inhibitory effect of O4I3 on LSD1 and KDM5. KDM4 (also known as JMJD2), the HDM of H3K9 and H3K36, was also included.
Epiquik histone demethylase (H3K4 specific) activity/inhibition assay kit (Epigentek, Biocat, Germany) was used to measure the protective effect of O4I3 and zolpidem on the methylation of H3K4. Their inhibitory effects on LSD1, KDM5s, and KDM4 were determined using Epigenase jarid demethylase activity/inhibition assay kit, Epigenase JMJD2 demethylase activity/inhibition assay kit and EpiQuik histone demethylase LSD1 activity/inhibition assay kit (Epigentek, Biocat, Germany). The total nuclear extraction was used according to manufacturer's instructions. For measuring KDM5A, KDM5B, KDM5C, and KDM5D activity, magnetic beads were used to immunoprecipitate the respective enzymes from 10^8 cells according to the manufacturer's instructions (Cell Signaling Technologies).

Assay [2] concerns neural stem cells. Kind of assay: Maintenance of neural stem cells, MTT viability. Format: cell-based. The conditions noted are these: starting from 1 nM. Here is the method:
Neural stem cells were cultivated in SPN medium (DMEM-F12 Knockout medium containing 2% StemPro® NSC SFM, EGF (20 ng/mL) and FGF (20 ng/mL)) until cell confluence reached 80-90%. Acutase was used to get single cell suspension and washed with PBS. 20,000 cells/[…] were seeded into matrigel-coated plates using SPN medium with or without O4I3. The MTT assay was applied to determine cell viability.
The self-renewal of multipotent neural stem cells was also tested with the compound of the current invention. Neural stem cells were cultivated in SPN medium with or without O4I3 at different final concentrations (FIG. 7). The MTT assay was applied to determine cell viability. Starting from a concentration of 1 nM O4I3 the viability of neural stem cells was increased in comparison to mock treated neural stem cells.

This note sets out measurements from US20200062719A1, “Application of Imidazopyridine Derivatives in Regenerative Medicine” (University of Heidelberg, priority 2018, published 2020).

pIC50: −log10 of the molar value.

`Cc1ccc(-c2cn3cc(C)ccc3n2)cc1` [O4I3, 6-methyl-2-(p-tolyl)imidazo[1,2-a]pyridine] had a negative logarithm of the IC50 (pIC50) in assay [1] of 9.10. In addition, the “viability of neural stem cells in comparison to mock treated” value in assay [2] is listed as “increased”.

Broadly, the pIC50 is −log10 of the IC50, conventionally taken in molar units.
